Assay results: patent publication US20120225909A1, “INDAZOLE ANALOG” (priority 2009, published 2012)

Legend:
[1] = molecular target: T1, human β3-adrenergic receptor (Homo sapiens, UniProt P13945); assay: Test Case 1-B: human β3-adrenergic receptor agonist activity (cAMP-Screen, 96-well); format: cell-based; settings: for Emax: 0.5 h, read-out: β3 receptor I.A.; for EC50: CHO cells, cAMP
T1 construct: A full-length human β3 gene is obtained from a human genomic library (made by Clontech) using this as the probe; expressed in transfected cells; host or cells: CHO (Chinese hamster ovary) cells, pcDNA3
T1 sequence (P13945 whole entry): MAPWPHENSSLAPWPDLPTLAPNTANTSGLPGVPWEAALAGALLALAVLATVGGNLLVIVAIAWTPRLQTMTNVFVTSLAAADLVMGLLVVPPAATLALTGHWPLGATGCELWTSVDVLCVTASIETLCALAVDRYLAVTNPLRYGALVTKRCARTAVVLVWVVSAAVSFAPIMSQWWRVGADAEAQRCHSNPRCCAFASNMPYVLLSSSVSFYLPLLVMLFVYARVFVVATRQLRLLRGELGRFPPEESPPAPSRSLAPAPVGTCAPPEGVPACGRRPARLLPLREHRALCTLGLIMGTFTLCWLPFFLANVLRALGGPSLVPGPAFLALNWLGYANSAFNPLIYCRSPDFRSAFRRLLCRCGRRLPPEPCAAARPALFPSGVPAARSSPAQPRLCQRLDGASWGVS
Outline: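 CHO cells stably transfected with full-length human β3 gene, serum-starved 15 min, then exposed to serially diluted compound in Ham's F-12 with 100 mmol/L HEPES and 1 mmol/L IBMX (diluent concentrations) for 30 min. Cells lysed 30 min at 37 °C; cAMP quantified by cAMP-Screen immunoassay.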

[2] = molecular target: T2, human β1-adrenergic receptor (Homo sapiens, UniProt P08588); assay: Test Case 2-C: human β1-adrenergic receptor agonist activity (Cerep cellular functional GPCR, beta 1); format: cell-based; settings: concentration 10 μM, isoproterenol = 100%
T2 construct: expressed in transfected cells; host or cells: CHO (Chinese hamster ovary) cells, pcDNA3
T2 sequence (P08588 whole entry): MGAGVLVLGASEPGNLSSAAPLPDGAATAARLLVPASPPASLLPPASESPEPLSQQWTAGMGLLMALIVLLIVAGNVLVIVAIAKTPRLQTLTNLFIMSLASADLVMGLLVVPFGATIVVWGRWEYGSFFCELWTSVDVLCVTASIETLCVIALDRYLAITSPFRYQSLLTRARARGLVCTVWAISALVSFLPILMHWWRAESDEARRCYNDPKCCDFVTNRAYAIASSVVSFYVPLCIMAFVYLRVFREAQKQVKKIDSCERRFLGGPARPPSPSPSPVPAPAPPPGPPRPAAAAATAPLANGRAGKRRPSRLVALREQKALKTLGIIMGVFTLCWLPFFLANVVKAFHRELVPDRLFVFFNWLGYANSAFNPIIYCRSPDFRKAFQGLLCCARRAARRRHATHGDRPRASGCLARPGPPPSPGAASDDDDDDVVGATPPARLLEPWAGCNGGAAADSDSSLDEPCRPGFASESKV
Excerpt: (§1) Measurement of Human β1-Adrenergic Receptor Agonist Activity

[3] = molecular target: T3, human β2-adrenergic receptor (Homo sapiens, UniProt P07550); assay: Test Case 3-B: human β2-adrenergic receptor agonist activity; format: cell-based; settings: read-out: β2 receptor I.A.
T3 construct: expressed in transfected cells; host or cells: CHO (Chinese hamster ovary) cells, pcDNA3
T3 sequence (P07550 whole entry): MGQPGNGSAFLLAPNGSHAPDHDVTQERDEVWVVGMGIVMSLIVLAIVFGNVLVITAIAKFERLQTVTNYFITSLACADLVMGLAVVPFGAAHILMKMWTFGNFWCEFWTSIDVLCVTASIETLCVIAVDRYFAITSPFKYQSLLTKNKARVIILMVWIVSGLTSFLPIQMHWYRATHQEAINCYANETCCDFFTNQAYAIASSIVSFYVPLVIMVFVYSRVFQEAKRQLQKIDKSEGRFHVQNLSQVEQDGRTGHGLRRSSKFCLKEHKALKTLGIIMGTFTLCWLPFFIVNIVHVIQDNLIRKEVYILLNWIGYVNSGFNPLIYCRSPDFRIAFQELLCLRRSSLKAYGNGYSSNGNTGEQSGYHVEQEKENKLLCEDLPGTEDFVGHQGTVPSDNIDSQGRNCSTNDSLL
Procedure: (§2) Measurement of Human β2-Adrenergic Receptor Agonist Activity
The human β2-adrenergic receptor agonist activity is measured by the same method as in Test Case 1-B using CHO (Chinese hamster ovary) cells transfected by a human β2 gene inserted in pcDNA3 (Invitrogen).

[4] = molecular target: T3, human β2-adrenergic receptor; assay: Test Case 3-C: human β2-adrenergic receptor agonist activity (Cerep cellular functional GPCR, beta 2); format: cell-based; settings: concentration 10 μM, isoproterenol = 100%
Excerpt: as §2

[5] = tested on: pentobarbital-anesthetized rats; assay: Test Case 9: effects on the blood pressure and heart rate in pentobarbital-anesthetized rats; format: in vivo, rat; settings: anesthetized male SD rats; 3 mg/kg intravenous over 30 seconds; maximum change, mean±standard deviation
Procedure: Effects on the blood pressure and heart rate in pentobarbital-anesthetized rats
The blood pressure and heart rate of rats under pentobarbital anesthesia are measured, and the effects of rapid intravenous administration of the test compound on the blood pressure and heart rate can be studied. After anesthetizing male SD rats (Japan SLC) by intraperitoneal administration of 50 mg/kg of pentobarbital sodium (Tokyo Chemical Industry Co., Ltd.), 25 mg/kg of pentobarbital sodium is administered subcutaneously as maintenance anesthesia. The left femoral vein is exposed and stripped, and a SP10 polyethylene tube filled with saline (connected to a three-way stopcock via a ¼ venous needle) is inserted and left in place in the vein.
The inside of the left thigh is cut, and the femoral artery is exposed and stripped. A polyethylene tube filled with heparinized physiological saline solution (SP31, connected to a three-way stopcock via a Terumo injection needle 22G) is inserted and connected to a pressure transducer. The blood pressure is measured from the pressure transducer via a strain pressure amplifier (AP-641G, Nihon Kohden). The heart rate is measured with the pulse wave of the blood pressure as a trigger via a heart rate counter (AT-601G, Nihon Kohden). The blood pressure, mean blood pressure, and heart rate are output to a recorder and recorded. Furthermore, the mean blood pressure is recorded via the strain pressure amplifier (AP-641G) using the formula {[…]}.
Specifically, 3 mg/mL of test compound is administered rapidly at a volume of 1 mL/kg. The relative value (%) of the values at each point in time versus the mean blood pressure and heart rate before beginning administration are determined for each individual, and the mean±standard deviation of the relative value (%) at the time of the maximum change in each parameter is determined.

[6] = tested on: Male C57BL/6 Cr mice; assay: Test Case 10: mouse piloerection test; format: in vivo; settings: 10 mg/kg i.v., Score 0
[7] = molecular target: T4, human α1A-adrenergic receptor (Homo sapiens, UniProt P35348); assay: Test Case 4-B: human α1A-adrenergic receptor agonist activity (Cerep cellular functional GPCR, alpha 1A); format: cell-based; parameters: expressed in transfected cells; settings: concentration 10 μM; for α1 receptor % of Control Agonist Response, Control; Epinephrine: epinephrine = 100%; for α1 receptor % of Control Agonist Response, Control; Norepinephrine: norepinephrine = 100%
T4 sequence (P35348 1-466): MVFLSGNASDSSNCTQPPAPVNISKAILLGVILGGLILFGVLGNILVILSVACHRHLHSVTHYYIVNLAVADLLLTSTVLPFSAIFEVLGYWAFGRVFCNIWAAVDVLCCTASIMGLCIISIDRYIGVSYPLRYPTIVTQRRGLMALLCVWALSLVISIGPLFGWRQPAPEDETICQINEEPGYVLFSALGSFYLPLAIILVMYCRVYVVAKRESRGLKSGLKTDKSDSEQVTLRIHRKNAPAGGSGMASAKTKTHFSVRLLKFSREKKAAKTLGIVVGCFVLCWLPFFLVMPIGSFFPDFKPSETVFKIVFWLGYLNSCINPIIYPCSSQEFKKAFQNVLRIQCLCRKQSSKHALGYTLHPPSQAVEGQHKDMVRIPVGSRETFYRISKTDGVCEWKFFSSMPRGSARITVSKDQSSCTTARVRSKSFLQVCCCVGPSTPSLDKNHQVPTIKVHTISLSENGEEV
Excerpt: Measurement of Human α1A-Adrenergic Receptor Agonist Activity
The human α1A-adrenergic receptor agonist activity] can be measured by […] Functional GPCR·Gs, alpha 1A (Ref. 722-36a) listed on p. 52 of the Cerep 2008 CATALOG IN VITRO PHARMACOLOGY & ADME-TOX.

[8] = molecular target: T2, human β1-adrenergic receptor; assay: Test Case 2-B: human β1-adrenergic receptor agonist activity; format: cell-based; settings: read-out: β1 receptor I.A.
Procedure: as §1
The human β1-adrenergic receptor agonist activity is measured by the same method as in Test Case 1-B using CHO (Chinese hamster ovary) cells transfected by a human β1 gene inserted in pcDNA3 (Invitrogen).

[9] = molecular target: T4, human α1A-adrenergic receptor; assay: Test Case 4-A: human α1A-adrenergic receptor agonist activity (HEK293, Ca flux, Fura-2); format: cell-based; parameters: expressed in transfected cells; host or cells: HEK293 cells, pcDNA3.1; settings: HEK293; read-out: α1A receptor I.A.
Outline: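 Fura-2AM-loaded HEK293 cells transfected with human α1A were preincubated for 180 s. Compound (sample plate 10^−5 to 10^−12 M) was added after ~30 s of 340/380 nm excitation ratio reading (500 nm emission, 2-s intervals), followed by 270 s more reading. Ca flux is the peak height: maximum ratio after addition minus the pre-addition ratio.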

[10] = molecular target: T1, human β3-adrenergic receptor; assay: Test Case 1-A: human β3-adrenergic receptor agonist activity (cAMP-EIA, 24-well); format: cell-based; settings: maximum response of isoproterenol = 100%
Procedure: Measurement of Human β3-Adrenergic Receptor Agonist Activity
The human β3-adrenergic receptor agonist activity is measured using CHO (Chinese hamster ovary) cells transfected by a human β3 gene inserted in pcDNA3 (Invitrogen). […] A full-length human β3 gene is obtained from a human genomic library (made by Clontech) using this as the probe. These cells are cultured in Ham's F-12 medium containing 10% fetal calf serum and 400 μg/mL genectin (Invitrogen). These cells are sown in 24-well plates to make 1×10^5 cells/well. After culturing for approximately 20 hours, they are allowed to stand for two hours in serum-free Ham's F-12 medium. […] After culturing for 30 minutes, the medium is removed, and 0.1 mL of 1 N NaOH is added and allowed to stand for 20 minutes. A quantity of 0.1 mL of 1 N acetic acid is added. After stirring, centrifugation is performed, and cAMP is assayed using a cAMP-EIA kit (made by Cayman).

[11] = tested on: common marmoset isolated bladder smooth muscle; assay: Test Case 7: common marmoset isolated bladder smooth muscle relaxation test; settings: KCl 40 mmol/L contracted marmoset bladder, papaverine 10^−4 mol/L relaxation = 100%
Procedure: Common Marmoset Isolated Bladder Smooth Muscle Relaxation Test
After sacrificing common marmosets (Japan CLEA) by exsanguination, they are laparotomized and the urinary bladder is removed. […] The specimens are loaded with one gram of resting tension and stabilized for 30 or more minutes. After the resting tension of the specimen has stabilized, a final concentration of 40 mmol/L of KCl is added repeatedly, and it is confirmed that the contraction in response to KCl has basically become constant. […] Taking that relaxation response as 100%, the relaxation rate (%) at test compound concentrations of […] is calculated.

β3 receptor I.A. [10] [%]	β3 receptor I.A. ([1]; Test Case 1-B, maximum response of isoproterenol = 100%) [%]	Compound	Emax [1] [%]	EC50 ([1]; Test Case 1-B) [nM]	β1 receptor % of Control Agonist Response [2] [%]	Emax [3] [%]	β2 receptor % of Control Agonist Response [4] [%]	increase in MBP (%) [5] [%]	number of experimental animals matching Score 0 (no piloerection) ([6]; n=4, observation time 5 min)	number of experimental animals matching Score 0 (no piloerection) ([6]; n=4, observation time 15 min)	number of experimental animals matching Score 0 (no piloerection) ([6]; n=4, observation time 30 min)	number of experimental animals matching Score 0 (no piloerection) ([6]; n=4, observation time 60 min)	α1 receptor % of Control Agonist Response, Control; Epinephrine [7] [%]	α1 receptor % of Control Agonist Response, Control; Norepinephrine [7] [%]	Emax [8] [%]	Emax [9] [%]	relaxant activity (%) 10^−4M ([11]; 10^−4 M) [%]	relaxant activity (%) 10^−5M ([11]; 10^−5 M) [%]
–	–	O=S(=O)(Nc1cccc([C@@H](O)CNCCOc2ccc3c(OC(F)F)n[nH]c3c2)c1)c1cn[nH]c1 [ex113, (R)-N-(3-(2-(2-(3-(difluoromethoxy)-indazol-6-yloxy)ethylamino)-1-hydroxyethyl)phenyl)pyrazole-4-sulfonamide]	108	22	3.7	3	0.2	3.3 ± 1.7	4	4	4	4	6.9	6.0	–	–	–	–
–	–	CCc1n[nH]c2cc(OCCNC[C@H](O)c3cccc(NS(=O)(=O)c4cnn(C)c4)c3)ccc12 [ex135, (R)-N-(3-(2-(2-(3-ethylindazol-6-yloxy)ethylamino)-1-hydroxyethyl)phenyl)-1-methylpyrazole-4-sulfonamide]	105	29	3.7	7	1.3	5.6 ± 1.2	4	4	4	4	0	0	–	–	–	–
–	–	CCc1n[nH]c2cc(OCCNC[C@H](O)c3cccc(NS(=O)(=O)c4cn[nH]c4)c3)ccc12 [ex149]	100	12	5.2	0	0.2	2.1 ± 1.9	4	4	4	4	8.5	7.3	–	–	–	–
–	–	O=S(=O)(Nc1cccc([C@@H](O)CNCCOc2ccc3c(C4CC4)n[nH]c3c2)c1)C1CC1 [ex212]	95	29	–	15	–	2.1 ± 1.7	4	4	4	4	–	–	6	0	–	–
100	100	CC(C)NCC(O)c1ccc(O)c(O)c1 (centres unmarked) [isoproterenol, reference compound]	–	–	–	–	–	–	–	–	–	–	–	–	–	–	54.4	50.6
